Laboratory results from ChEMBL document CHEMBL4152226, “Novel Mannich bases of α- and γ-mangostins: Synthesis and evaluation of antioxidant and membrane-protective activity” (Eur J Med Chem, 2018).
The source made the active and inactive calls. No cut-off for these calls is given here.

Tests used:
Erythrocyte [1] = test: Protection against H2O2-induced oxidative stress in mouse RBC assessed as inhibition of hemolysis at 1 uM pretreated for 30 mins followed by H2O2 addition and measured after 5 hrs by malondialdehyde indicator based assay relative to control; assay type: functional
Erythrocyte [2] = test: Antioxidant activity against H2O2-induced oxidative stress in mouse RBC assessed as inhibition of LPO accumulation at 1 uM pretreated for 30 mins followed by H2O2 addition and measured after 4 hrs by TBARS assay relative to control; assay type: functional
Erythrocyte [3] = test: Antioxidant activity against H2O2-induced oxidative stress in mouse RBC assessed as inhibition of LPO accumulation at 10 uM pretreated for 30 mins followed by H2O2 addition and measured after 4 hrs by TBARS assay relative to control; assay type: functional
Erythrocyte [4] = test: Protection against H2O2-induced oxidative stress in mouse RBC assessed as inhibition of hemolysis at 10 uM pretreated for 30 mins followed by H2O2 addition and measured after 5 hrs by malondialdehyde indicator based assay relative to control; assay type: functional
[5] = Antioxidant activity assessed as DPPH radical scavenging activity at 10 to 100 uM incubated in dark for 30 mins; assay type: functional
Erythrocyte [6] = test: Hemolytic activity against mouse RBC at 30 uM measured after 5 hrs by malondialdehyde indicator based assay; assay type: ADME, cell-based
[7] = Metal chelating activity assessed as compound-Fe2+ complex formation at 10 uM after 10 mins by FerrozineTM iron reagent based assay
Erythrocyte [8] = test: Antioxidant activity against H2O2-induced oxidative stress in mouse RBC assessed as inhibition of LPO accumulation at 0.05 uM pretreated for 30 mins followed by H2O2 addition and measured after 4 hrs by TBARS assay relative to control; assay type: functional
Erythrocyte [9] = test: Protection against H2O2-induced oxidative stress in mouse RBC assessed as inhibition of hemolysis at 0.05 uM pretreated for 30 mins followed by H2O2 addition and measured after 5 hrs by malondialdehyde indicator based assay relative to control; assay type: functional
[10] = Antioxidant activity assessed as DPPH radical scavenging activity at 100 uM incubated in dark for 30 mins relative to control; assay type: functional
[11] = Hemolytic activity against mouse RBC assessed as hemolysis measured after 5 hrs by malondialdehyde indicator based assay relative to control; assay type: ADME, cell-based, Erythrocyte; conditions: mouse red blood cells (erythrocytes), read-out: Activity

Structure (SMILES)	inhibition at 1 µM (Erythrocyte [1]) [%]	inhibition at 1 µM (Erythrocyte [2]) [%]	inhibition at 10 µM (Erythrocyte [3]) [%]	inhibition at 10 µM (Erythrocyte [4]) [%]	Activity [5]	Activity (Erythrocyte [6])	Activity [7]	inhibition at 0.05 µM (Erythrocyte [8]) [%]	inhibition at 0.05 µM (Erythrocyte [9]) [%]	Activity [10] [%]	hemolysis at 5 h [11] [%]
COc1c(O)c(CN2CCCCCC2)c2oc3c(CN4CCCCCC4)c(O)c(CC=C(C)C)c(O)c3c(=O)c2c1CC=C(C)C	35	34.8	54.1	19	Active	Non-Toxic	–	–	–	–	–
COc1c(O)c(CN2CCOCC2)c2oc3c(CN4CCOCC4)c(O)c(CC=C(C)C)c(O)c3c(=O)c2c1CC=C(C)C	75.6	76.1	57.4	22	Active	Non-Toxic	–	–	–	–	–
COc1c(O)cc2oc3c(CN4CCCC4)c(O)c(CC=C(C)C)c(O)c3c(=O)c2c1CC=C(C)C	29.2	56.4	68.2	17.5	Active	Non-Toxic	Active	–	–	–	–
CC(C)=CCc1c(O)c(CN2CCCCCC2)c2oc3c(CN4CCCCCC4)c(O)c(O)c(CC=C(C)C)c3c(=O)c2c1O	9	–	71.5	–	Active	Non-Toxic	Active	69	74.3	–	–
COc1c(O)cc2oc3c(CN4CCCCCC4)c(O)c(CC=C(C)C)c(O)c3c(=O)c2c1CC=C(C)C	27.6	51.2	48.9	10.8	Active	Non-Toxic	Active	–	–	–	–
COc1c(O)cc2oc3c(CN4CCCCC4)c(O)c(CC=C(C)C)c(O)c3c(=O)c2c1CC=C(C)C	–	–	–	–	–	–	–	–	–	13.1 to 16	–
CC(C)=CCc1c(O)c(CN(C)C)c2oc3c(CN(C)C)c(O)c(O)c(CC=C(C)C)c3c(=O)c2c1O	15.3	–	75.7	–	Active	Non-Toxic	Active	67.7	78	–	–
COc1c(O)cc2oc3c(CN(C)C)c(O)c(CC=C(C)C)c(O)c3c(=O)c2c1CC=C(C)C	–	–	–	–	–	–	–	–	–	13.1 to 16	63.1
CC(C)=CCc1c(O)c(CN2CCOCC2)c2oc3c(CN4CCOCC4)c(O)c(O)c(CC=C(C)C)c3c(=O)c2c1O	6.9	–	68.8	–	Active	Non-Toxic	Active	78.5	79.6	–	–
COc1c(O)c(CN(C)C)c2oc3c(CN(C)C)c(O)c(CC=C(C)C)c(O)c3c(=O)c2c1CC=C(C)C	41	56.1	58.2	66.3	Active	Toxic	–	–	–	–	–
COc1c(O)c(CN2CCCCCC2)c2oc3c(CN4CCOCC4)c(O)c(CC=C(C)C)c(O)c3c(=O)c2c1CC=C(C)C	37.5	56.1	33.6	17.7	Active	Non-Toxic	–	–	–	–	–
CCCCNCc1c(O)c(CC=C(C)C)c(O)c2c(=O)c3c(CC=C(C)C)c(OC)c(O)c(CN(C)C)c3oc12	36.8	53.5	61.5	50	Active	Non-Toxic	–	–	–	–	–
COc1c(O)cc2oc3cc(O)c(CC=C(C)C)c(O)c3c(=O)c2c1CC=C(C)C [MANGOSTIN]	60.2 to 60.9	54.2 to 66.9	59.8 to 67	44.4 to 46.3	Active	Non-Toxic	–	–	–	–	–
CC(C)=CCc1c(O)cc2oc3cc(O)c(O)c(CC=C(C)C)c3c(=O)c2c1O	15.1	–	68.1	–	Active	Non-Toxic	–	72.8	85.9	–	–
COc1c(O)cc2oc3c(CN4CCOCC4)c(O)c(CC=C(C)C)c(O)c3c(=O)c2c1CC=C(C)C	–	–	–	–	–	–	–	–	–	13.1 to 16	–
CCCCNCc1c(O)c(CC=C(C)C)c(O)c2c(=O)c3c(CC=C(C)C)c(OC)c(O)cc3oc12	46.4	60.5	70.5	31.9	Active	Non-Toxic	–	–	–	–	–
